One test has as its target AktK (Homo sapiens, UniProt P31749). The test is described as follows: Luciferase-coupled chemiluminescence kinase assay (ATP consumption). The format is biochemical. Conditions: read-out: AKT-1 IC50. The method in brief:
(§1)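 Activity is read as ATP depletion: luciferase-luciferin reagent added after a 3 h ambient-temperature kinase reaction, with total ATP use limited to 25-60%. Before ATP addition, 2.5-5 nM kinase and compound were preincubated 30 min in Tris pH 7.5/MgCl2/TX-100/DTT buffer; […].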

In a further test the target is p70S6K (Homo sapiens, UniProt P23443). The test is described as above. In kind it is biochemical. The method in brief:
as §1

This is an account of results in patent US8076338B2, “Kinase modulators and methods of use” (Exelixis, Inc., priority 2004, dated 2011).

Structures are written as SMILES.

AktK, sequence (P31749 whole entry): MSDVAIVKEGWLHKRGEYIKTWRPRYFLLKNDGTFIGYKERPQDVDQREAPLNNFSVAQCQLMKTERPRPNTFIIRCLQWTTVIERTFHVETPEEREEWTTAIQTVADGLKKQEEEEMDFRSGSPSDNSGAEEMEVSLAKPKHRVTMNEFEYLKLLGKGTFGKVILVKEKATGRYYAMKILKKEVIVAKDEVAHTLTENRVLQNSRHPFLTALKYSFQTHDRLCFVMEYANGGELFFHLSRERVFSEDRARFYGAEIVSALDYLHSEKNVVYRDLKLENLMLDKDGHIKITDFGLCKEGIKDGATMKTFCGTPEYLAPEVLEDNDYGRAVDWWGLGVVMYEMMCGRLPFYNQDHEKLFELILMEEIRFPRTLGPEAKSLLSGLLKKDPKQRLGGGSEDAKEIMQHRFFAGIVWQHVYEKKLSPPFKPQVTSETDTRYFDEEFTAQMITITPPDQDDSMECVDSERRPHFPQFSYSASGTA
p70S6K, sequence (P23443 whole entry): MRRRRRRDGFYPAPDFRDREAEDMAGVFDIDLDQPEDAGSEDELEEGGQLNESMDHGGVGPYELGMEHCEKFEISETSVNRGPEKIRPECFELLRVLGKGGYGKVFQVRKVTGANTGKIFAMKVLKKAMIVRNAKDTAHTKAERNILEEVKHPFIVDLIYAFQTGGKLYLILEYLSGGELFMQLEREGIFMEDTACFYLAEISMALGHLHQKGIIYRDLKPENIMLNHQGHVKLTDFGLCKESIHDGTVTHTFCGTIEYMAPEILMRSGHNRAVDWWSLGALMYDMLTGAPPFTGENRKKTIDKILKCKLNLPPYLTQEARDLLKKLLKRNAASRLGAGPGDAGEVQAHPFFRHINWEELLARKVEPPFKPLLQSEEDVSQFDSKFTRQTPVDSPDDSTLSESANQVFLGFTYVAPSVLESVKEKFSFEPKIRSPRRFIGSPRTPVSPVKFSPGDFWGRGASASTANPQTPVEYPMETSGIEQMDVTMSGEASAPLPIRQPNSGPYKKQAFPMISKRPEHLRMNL

For orientation: IC50 means the midpoint of a concentration-inhibition curve. As to `Cc1nc(N2CCN(c3cc(Cl)ccc3C)CC2)c2cn[nH]c2n1` [Entry 324, 4-[4-(5-chloro-2-methylphenyl)piperazin-1-yl]-6-methyl-1H-pyrazolo[3,4-d]pyrimidine], the IC50 at AktK and against p70S6K was 1000 to 10000 nM in each case.
On to `CCc1nc(N2CCN(c3cc(Cl)ccc3C)CC2)c2cn[nH]c2n1` [Entry 325, 4-[4-(5-chloro-2-methylphenyl)piperazin-1-yl]-6-ethyl-1H-pyrazolo[3,4-d]pyrimidine], for which the IC50 at AktK and at p70S6K was 1000 to 10000 nM in each case.
For the compound `Cc1ccc(Cl)cc1N1CCN(c2nc(C(C)C)nc3[nH]ncc23)CC1` [Entry 326, 4-[4-(5-chloro-2-methylphenyl)piperazin-1-yl]-6-(1-methylethyl)-1H-pyrazolo[3,4-d]pyrimidine], the IC50 on AktK and at p70S6K was 1000 to 10000 nM each time.
Turning to `Cc1ccc(Cl)cc1N1CCN(c2ncnc3[nH]nc(-c4ccccc4)c23)CC1` [Entry 327, 4-[4-(5-chloro-2-methylphenyl)piperazin-1-yl]-3-phenyl-1H-pyrazolo[3,4-d]pyrimidine], the IC50 is 1000 to 10000 nM on AktK and < 100 nM at p70S6K.
For the compound `COCCOCc1n[nH]c2ncnc(N3CCN(c4cc(Cl)ccc4C)CC3)c12` [Entry 328, 4-[4-(5-chloro-2-methylphenyl)piperazin-1-yl]-3-({[2-(methyloxy)ethyl]oxy}methyl)-1H-pyrazolo[3,4-d]pyrimidine], the IC50 was 1000 to 10000 nM on AktK and < 100 nM against p70S6K.
Take `Cc1ccc(Cl)cc1N1CCN(c2ncnc3[nH]nc(Br)c23)CC1` [Entry 329, 3-bromo-4-[4-(5-chloro-2-methylphenyl)piperazin-1-yl]-1H-pyrazolo[3,4-d]pyrimidine]: the IC50 on AktK was 100 to 1000 nM; against p70S6K it was < 100 nM.
In the case of `CCCc1n[nH]c2ncnc(N3CCN(c4cc(Cl)ccc4C)CC3)c12` [Entry 330, 4-[4-(5-chloro-2-methylphenyl)piperazin-1-yl]-3-propyl-1H-pyrazolo[3,4-d]pyrimidine], the results for the half-inhibitory concentration (IC50) on AktK and at p70S6K were 1000 to 10000 nM and < 100 nM, respectively.
The like results for `Cc1ccc(Cl)cc1N1CCN(c2ncnc3[nH]nc(-c4ccc(O)cc4)c23)CC1` [Entry 331, 4-{4-[4-(5-chloro-2-methylphenyl)piperazin-1-yl]-1H-pyrazolo[3,4-d]pyrimidin-3-yl}phenol] were, in that order, 1000 to 10000 nM and < 100 nM.
Turning to `Cc1ccc(Cl)cc1N1CCN(c2ncnc3[nH]nc(Nc4ccccc4)c23)CC1` [Entry 332, 4-[4-(5-chloro-2-methylphenyl)piperazin-1-yl]-N-phenyl-1H-pyrazolo[3,4-d]pyrimidin-3-amine], the IC50 on AktK and against p70S6K was 1000 to 10000 nM in each case.
In the case of `CCc1n[nH]c2ncnc(N3CCN(c4cccc(Cl)c4)CC3)c12` [Entry 333, 4-[4-(3-chlorophenyl)piperazin-1-yl]-3-ethyl-1H-pyrazolo[3,4-d]pyrimidine], the values for the IC50 on AktK and against p70S6K were 1000 to 10000 nM and < 100 nM, respectively.
For `CCc1n[nH]c2ncnc(N3CCN(c4cc(Cl)ccc4OC)CC3)c12` [Entry 334, 4-{4-[5-chloro-2-(methyloxy)phenyl]piperazin-1-yl}-3-ethyl-1H-pyrazolo[3,4-d]pyrimidine], the IC50 is 1000 to 10000 nM on AktK and < 100 nM against p70S6K.
As to `Cc1ccc(Cl)cc1N1CCN(c2ncnc3[nH]nc(-c4cccc(O)c4)c23)CC1` [Entry 335, 3-{4-[4-(5-chloro-2-methylphenyl)piperazin-1-yl]-1H-pyrazolo[3,4-d]pyrimidin-3-yl}phenol], the results for the IC50 on AktK and against p70S6K were 1000 to 10000 nM and 100 to 1000 nM, respectively.
As to `Cc1ccc(Cl)cc1N1CCN(c2ncnc3[nH]nc(-c4cccc(OCc5ccccc5)c4)c23)CC1` [Entry 336, 4-[4-(5-chloro-2-methylphenyl)piperazin-1-yl]-3-{3-[(phenylmethyl)oxy]phenyl}-1H-pyrazolo[3,4-d]pyrimidine], the IC50 on AktK and on p70S6K was 1000 to 10000 nM each time.
With `Cc1ccc(Cl)cc1N1CCN(c2ncnc3[nH]nc(-c4ccc5c(c4)OCO5)c23)CC1` [Entry 337, 3-(1,3-benzodioxol-5-yl)-4-[4-(5-chloro-2-methyl-phenyl)piperazin-1-yl]-1H-pyrazolo[3,4-d]pyrimidine], the values for the IC50 at AktK and against p70S6K were 1000 to 10000 nM and 100 to 1000 nM, respectively.
Turning to `Cc1ccc(Cl)cc1N1CCN(c2ncnc3[nH]nc(-c4cccs4)c23)CC1` [Entry 338, 4-[4-(5-chloro-2-methylphenyl)piperazin-1-yl]-3-(2-thienyl)-1H-pyrazolo[3,4-d]pyrimidine], the IC50 on AktK is 1000 to 10000 nM; against p70S6K, < 100 nM.
On to `Cc1ccc(Cl)cc1N1CCN(c2ncnc3[nH]nc(-c4cccc(N)c4)c23)CC1` [Entry 339, 3-{4-[4-(5-chloro-2-methylphenyl)piperazin-1-yl]-1H-pyrazolo[3,4-d]pyrimidin-3-yl}aniline], for which the IC50 fell in the range of 1000 to 10000 nM at AktK and 100 to 1000 nM at p70S6K.
With `Cc1ccc(Cl)cc1N1CCN(c2ncnc3[nH]nc(-c4cccc(C(=O)O)c4)c23)CC1` [Entry 340, 3-{4-[4-(5-chloro-2-methylphenyl)piperazin-1-yl]-d1H-pyrazolo[3,4-]pyrimidin-3-yl}benzoic acid], the IC50 on AktK and against p70S6K was 1000 to 10000 nM in each case.
On to `Cc1ccc(-c2n[nH]c3ncnc(N4CCN(c5cc(Cl)ccc5C)CC4)c23)cc1` [Entry 341, 4-[4-(5-chloro-2-methylphenyl)piperazin-1-yl]-3-(4-methylphenyl)-1H-pyrazolo[3,4-d]pyrimidine], for which the IC50 at AktK and against p70S6K was 1000 to 10000 nM each time.
Consider `CC(=O)Nc1ccc(-c2n[nH]c3ncnc(N4CCN(c5cc(Cl)ccc5C)CC4)c23)cc1` [Entry 342, N-(4-{4-[4-(5-chloro-2-methylphenyl)piperazin-1-yl]-1H-pyrazolo[3,4-d]pyrimidin-3-yl}phenyl)acetamide], for which the IC50 was 1000 to 10000 nM on AktK and 100 to 1000 nM against p70S6K.
In the case of `CCc1n[nH]c2ncnc(N3CCCN(c4cccc(Cl)c4)CC3)c12` [Entry 343, 4-[4-(3-chlorophenyl)-1,4-diazepan-1-yl]-3-ethyl-1H-pyrazolo[3,4-d]pyrimidine], the values for the IC50 on AktK and at p70S6K were ≥ 10000 nM and 100 to 1000 nM, respectively.
Regarding `CCc1n[nH]c2ncnc(N3CC4CC3CN4c3cccc(Cl)c3)c12` (stereo not shown) [Entry 344, 4-[5-(3-chlorophenyl)-2,5-diazabicyclo[2.2.1]hept-2-yl]-3-ethyl-1H-pyrazolo[3,4-d]pyrimidine], the IC50 was 1000 to 10000 nM on AktK and < 100 nM against p70S6K.
Regarding `CCc1n[nH]c2ncnc(N3CCN(c4ccc(OCCN5CCOCC5)c(Cl)c4)CC3)c12` [Entry 345, 4-(4-{3-chloro-4-[(2-morpholin-4-ylethyl)oxy]phe-nyl}piperazin-1-yl)-3-ethyl-1H-pyrazolo[3,4-d]pyrimidine], the figures for the IC50 on AktK and on p70S6K were ≥ 10000 nM and 1000 to 10000 nM, respectively.
Regarding `CCc1n[nH]c2ncnc(N3CCN(c4cccc(Cl)c4)C(C(=O)OC)C3)c12` (stereo not shown) [Entry 346, methyl 1-(3-chlorophenyl)-4-(3-ethyl-1H-pyrazolo[3,4-d]pyrimidin-4-yl)piperazine-2-carboxylate], the results for the IC50 at AktK and at p70S6K were ≥ 10000 nM and 1000 to 10000 nM, respectively.
In the case of `Cc1ccc(Cl)cc1N1CCN(c2ncnc3[nH]nc(C(F)(F)F)c23)CC1` [Entry 348, 4-[4-(5-chloro-2-methylphenyl)piperazin-1-yl]-3-(trifluoromethyl)-1H-pyrazolo[3,4-d]pyrimidine], the IC50 at AktK is 1000 to 10000 nM; at p70S6K it was < 100 nM.
On the same counts, the results for `CCc1n[nH]c2ncnc(N3CCN(c4cccc(Cl)c4)CC3C(=O)OC)c12` (stereo not shown) [Entry 349, methyl 4-(3-chlorophenyl)-1-(3-ethyl-1H-pyrazolo[3,4-d]pyrimidin-4-yl)piperazine-2-carboxylate] are ≥ 10000 nM and 1000 to 10000 nM.
For the compound `CCc1n[nH]c2ncnc(N3CCN(c4ccc(OCCN5CCCCC5)c(Cl)c4)CC3)c12` [Entry 350, 4-(4-{3-chloro-4-[(2-piperidin-1-ylethyl)oxy]phe-nyl}piperazin-1-yl)-3-ethyl-1H-pyrazolo[3,4-d]pyrimidine], the IC50 at AktK is ≥ 10000 nM; against p70S6K it was 1000 to 10000 nM.
With `Cc1ccc(Cl)cc1N1CCN(c2ncnc3[nH]nc(C(C)C)c23)CC1` [Entry 351, 4-[4-(5-chloro-2-methylphenyl)piperazin-1-yl]-3-(1-methylethyl)-1H-pyrazolo[3,4-d]pyrimidine], the IC50 on AktK is 1000 to 10000 nM; against p70S6K it was < 100 nM.
Take `CCc1n[nH]c2ncnc(N3CCN(c4cccc(Cl)c4)C(C(=O)O)C3)c12` (stereo not shown) [Entry 352, 1-(3-chlorophenyl)-4-(3-ethyl-1H-pyrazolo[3,4-d]pyrimidin-4-yl)piperazine-2-carboxylic acid]: the figures for the IC50 at AktK and at p70S6K were ≥ 10000 nM and 100 to 1000 nM, respectively.
On the same counts, the results for `CCc1n[nH]c2ncnc(N3CCN(c4cccc(Cl)c4)C(C(=O)NC)C3)c12` (stereo not shown) [Entry 353, 1-(3-chlorophenyl)-4-(3-ethyl-1H-pyrazolo[3,4-d]pyrimidin-4-yl)-N-methylpiperazine-2-carboxamide] are 1000 to 10000 nM and 100 to 1000 nM.
On the same counts, the results for `Cc1ccc(Cl)cc1N1CCN(c2ncnc3[nH]nc(Cc4ccccc4)c23)CC1` [Entry 354, 4-[4-(5-chloro-2-methylphenyl)piperazin-1-yl]-3-(phenylmethyl)-1H-pyrazolo[3,4-d]pyrimidine] are 1000 to 10000 nM and 100 to 1000 nM.
For `COc1ccc(-c2n[nH]c3ncnc(N4CCN(c5cc(Cl)ccc5C)CC4)c23)cc1` [Entry 356, 4-[4-(5-chloro-2-methylphenyl)piperazin-1-yl]-3-[4-(methyloxy)phenyl]-1H-pyrazolo[3,4-d]pyrimidine], the IC50 on AktK was in the range of 1000 to 10000 nM; against p70S6K, 100 to 1000 nM.
In the case of `Cc1ccc(Cl)cc1N1CCN(c2ncnc3[nH]nc(-c4ccc(F)cc4)c23)CC1` [Entry 357, 4-[4-(5-chloro-2-methylphenyl)piperazin-1-yl]-3-(4-fluorophenyl)-1H-pyrazolo[3,4-d]pyrimidine], the IC50 lay within 1000 to 10000 nM at AktK and 100 to 1000 nM against p70S6K.
